The values below come from patent publication US20230372276A1, “METHODS FOR DELIVERING MEDIUM CHAIN TRIGLYCERIDES WITH CONTROLLED PHARMACOKINETIC, SAFETY AND TOLERABILITY PROFILES” (Cerecin Inc., priority 2020, published 2023).

Data set [1] can be described thus: Ethnicity analysis of total ketone exposure, Chinese vs Caucasian (Study 2 parts combined). The class given is in vivo, human (healthy young male Caucasian and Asian volunteers). As to conditions: healthy participants. As for the experimental part:
The present example investigates the pharmacokinetics, safety and tolerability of tricaprilin in healthy young male Caucasian and Asian volunteers to understand and elucidate any differences between the two populations and any identify any ethnic sensitivities. In this example, data from several studies were analyzed to evaluate any ethnicity differences in safety and tolerability of tricaprilin. The analyzed studies included Caucasian and Asian (Chinese) subjects and several analyses were conducted to compare the effects in Caucasians vs Asian. Ethnic Chinese participants were defined as all four grandparents being Chinese. The level of total ketones were quantitated using a validated LC-MS/MS bioanalytical assay.
Methods: Study 1 was a food effect study of a spray dried formulation of tricaprilin (AC-SD-01), conducted in healthy young males. […] Both of these studies included Caucasian and Asian (Chinese) subjects and several analyses were conducted to compare the effects in Caucasians vs Chinese. To explore whether ethnicity affects total ketone body exposure after tricaprilin administration, the pharmacokinetic parameters AUC0-t and Cmax from Study 2 were examined and grouped by an individual's ethnicity (Chinese or Caucasian).

The conditions of data set [2]: both, human, in vivo.
Experimental: The population for this study was 12 healthy older males and females age 50 and above.
Following a Screening period of up to 28 days, eligible subjects arrived at the clinical research unit (CRU) for Check-in on Day −1. On Day 1, subjects had predose samples of plasma serum taken for PK. […] Dose 2 was administered 30 minutes after completion of a standard lunch.
Subjects were to gradually increase the dose according to the titration scheme, aiming to reach a dose of 75 g twice a day.
On Days 15 and 21, subjects had predose and postdose (1, 1.5, and 2 hours) samples of plasma taken for PK. On Day 24, subjects had predose samples of plasma taken for PK. After the first dose on Day 24, 24-hour PK sampling was done to measure ketone body levels (βHB, AcAc). Check-out was on Day 25 following completion of scheduled assessments.
Immediately after dosing, the remaining treatment in the container was rinsed with 60 mL of water and administered to the subject for a total of approximately 300 mL of dosing liquid consumed for each dosing.
Cmax and Tmax were calculated for total ketones, βHB, and AcAc for the Day 15 and Day 21 PK sampling.
The plasma concentrations of βHB, AcAc, and total ketones were listed and summarized by study day and time point for all subjects in the PK Population. Mean and individual concentration-time profiles for Days 15, 21, and 24 were presented on linear and semi-log scales. Linear mean plots were presented with and without SD. Plasma βHB, AcAc and total ketones PK parameters were listed and summarized by study day and dose for all subjects in the PK Population. No inferential statistics were performed on the PK data.

Turning to `CCCCCCCC(=O)OCC(COC(=O)CCCCCCC)OC(=O)CCCCCCC` [tricaprilin], the “Exposure to total ketones, ethnic Chinese compared to Caucasians” value in data set [1] is on record as “no different”. In data set [2], the “increase of geometric mean Cmax for AcAc” value stood at 2.3 fold, the “increase of geometric mean Cmax for total ketones” value is 2.7 fold and the “increase of geometric mean Cmax for βHB” value is listed as 2.9 fold.
